According to patent publication US20160263150A1, “TUNING BIOLOGICAL SYSTEM PROPERTIES FOR OPTIMIZED TREATMENT EFFICACY” (Baylor College of Medicine, priority 2015, published 2016):

Tests used:
Assay type in all cases: physicochemical
[1] = RF heating of kosmotropic materials in PBS (Example 2); settings: 342 mg/mL in PBS
Description: Kosmotropic material solutions in phosphate buffered saline (PBS) were prepared using concentrated PBS to maintain equal ion concentration in all solutions. Kosmotropic materials (sucrose, maltose, trehalose, glycerol, propylene glycol, ethylene glycol) and all salts were obtained from Sigma-Aldrich in high purity (>98%) and used as received.
A variable power Kanzius External RF system (13.56 MHz) Generator System (ThermMed, LLC, Erie, Pa.) was used to heat aqueous solutions and tissue samples. A high-voltage RF field is generated in the 8 cm air gap between the transmitting and receiving heads of the RF-field generator. For aqueous experiments, samples were placed in a 1.3 mL quartz cuvette on a nonconducting Teflon holder mounted on an adjustable rotary stage at ambient temperature and open to air. […] Sample temperatures were recorded using an infrared camera (FLIR SC 6000, FLIR Systems, Inc., Boston, Mass.) approximately every 0.17 seconds. […] Heating rates were calculated by fitting a linear regression to the temperature versus time plot of each sample for the duration of RF exposure or only for the first five seconds of RF exposure. The latter methodology allows for the assumption that the dielectric properties remain approximately constant in the time frame analyzed, as discussed herein. […]

[2] = RF-induced heating of m-/s-SWNT suspensions in NaCl solutions; settings: with 2% w/v Pluronic F108
Description: Once characterized, these m-/s-SWNT samples were then exposed to a high-intensity (˜90 kV/m) 13.56 MHz RF electric field. […] Approximately 1.3 mL of each sample was placed in a cylindrical quartz cuvette (˜1 cm height by ˜1 cm diameter) and exposed to the RF field for 120 seconds or until the temperature reached 70° C. to prevent electrical arcing. Thermal imaging data was captured using an FLIR SC 600 infrared camera. Videos were also recorded simultaneously using a Nikon SLR camera. Once the samples had been exposed, the SWNTs were removed from solution using a 100 KDa filter to collect the supernatant, which was then re-exposed to the RF field. The differential heating rates determined heat production from the SWNTs themselves and not the Pluronic F108/NaCl background.
Using the highest SWNT concentration of 100 mg/L, Applicants then sought to investigate SWNT heating rates versus host medium conductivity, which was modulated using NaCl solutions. Aqueous NaCl solutions (all with 2% w/v Pluronic F108) across the molarity range 10^4 to 10^3 mM were combined with m-/s-SWNTs at a concentration of 100 mg/L. These were then exposed to the RF field and filtered to remove the supernatant, which was then re-exposed.

[3] = RF heating rate and conductivity of bovine blood mixed with additives; settings: for effect of addition on blood conductivity and heating rate: 1-20% by weight in bovine blood; for additive content from which a significant increase in blood heating rate (p<0.005) was observed: by weight in bovine blood with 2-3% EDTA
Description: In a similar study, various additives were added to bovine blood containing 2-3% ethylenediamine tetraacetic acid (EDTA) to prevent coagulation. The additives tested were propylene glycol, glycerol, pure water and normal saline at concentrations of 1-20% by weight.
A variable power RF (13.56 MHz) Generator System (ThermMed, LLC, Erie, Pa.) was used to heat aqueous solutions. A high-voltage RF field is generated in the 8 cm air gap between the transmitting and receiving heads of the RF field generator. For aqueous experiments, samples were placed in a 1.3 mL quartz cuvette on a non-conducting Teflon holder mounted on an adjustable rotary stage at ambient temperature and open to air. The cuvette was placed 8 mm from the transmitting head of the RF field generator and exposed to the high-voltage RF field at 100 or 900 W generator power. Sample temperatures were recorded using an infrared camera (FLIR SC 6000, FLIR Systems, Inc., Boston, Mass.) approximately every 0.17 s. At both 100 W and 900 W, samples were heated from ambient temperature (i.e., ˜23° C.) to 27° C. or for a duration of 60 seconds, whichever occurred first. Heating rates were calculated by fitting a linear regression to the temperature versus time plot of each sample for the duration of RF exposure.
Previous experiments involved conductivity modulation of PBS, a biologically relevant aqueous solution commonly used in laboratory settings. […] Blood samples contained 2-3% ethylenediamine tetraacetic acid (EDTA) to prevent coagulation. A number of additives, including water, normal saline, propylene glycol and glycerol were mixed with blood at increasing weight percent content (1-20%).

[4] = RF (13.56 MHz) heating rate of kosmotropic materials dissolved in PBS, 100 W; settings: 500 mg/m in PBS
Description: Sample temperature was measured using an infrared camera. The heating rates were calculated by a least-squares linear regression of the resultant temperature-time plot (FIG. 2B). Samples were heated from 23° C. to either 27° C. or for a duration of 60 seconds, whichever occurred first. Over this selected small temperature range, the variation of the temperature-dependence of dielectric properties was negligible.
The complex relative permittivity (∈′r and e″r) of all samples was measured over the frequency range of 10 MHz to 3 GHz (FIGS. 4A-B). From these measurements, the conductivity was obtained using the relationship σ=ω∈D∈″r. […]
Each of the materials listed in FIG. 5A were dissolved at 100, 250, and 500 mg/mL in phosphate buffered saline (PBS), a biologically iso-osmolar solution with similar conductivity (1.15 S/m) to blood and body tissues. […] RF heating rates and conductivity were measured according to the procedure described in Examples 1.1 and 1.2. […]
A variable power RF (13.56 MHz) Generator System (ThermMed, LLC, Erie, Pa.) was used to heat aqueous solutions. […] Sample temperatures were recorded using an infrared camera (FLIR SC 6000, FLIR Systems, Inc., Boston, Mass.) approximately every 0.17 s. […] Heating rates were calculated by fitting a linear regression to the temperature versus time plot of each sample for the duration of RF exposure.

[5] = RF heating of neat ethanol and oils, 900 W
Description: A variable power Kanzius External RF system (13.56 MHz) Generator System (ThermMed, LLC, Erie, Pa.) was used to heat aqueous solutions and tissue samples. A high-voltage RF field is generated in the 8 cm air gap between the transmitting and receiving heads of the RF-field generator. For aqueous experiments, samples were placed in a 1.3 mL quartz cuvette on a nonconducting Teflon holder mounted on an adjustable rotary stage at ambient temperature and open to air. The cuvette was placed 8 mm from the transmitting head of the RF-field generator and exposed to the high-voltage RF field at 900 W generator power. Sample temperatures were recorded using an infrared camera (FLIR SC 6000, FLIR Systems, Inc., Boston, Mass.) approximately every 0.17 seconds. Samples were heated from ambient temperature (i.e., ˜23° C. to ˜70° C. or for 120 seconds), whichever occurred first. Heating rates were calculated by fitting a linear regression to the temperature versus time plot of each sample for the duration of RF exposure or only for the first five seconds of RF exposure. The latter methodology allows for the assumption that the dielectric properties remain approximately constant in the time frame analyzed, as discussed herein.

| Structure (SMILES) | PBS heating rate with kosmotropic material [1] [° C./s] | effect of addition on blood conductivity and heating rate [3] | additive content from which a significant increase in blood heating rate (p<0.005) was observed [3] [%] | also measured |
| --- | --- | --- | --- | --- |
| OC[C@H]1O[C@H](O[C@H]2[C@H](O)[C@@H](O)C(O)O[C@@H]2CO)[C@H](O)[C@@H](O)[C@@H]1O (mixture of isomers) [Maltose, maltose] | 0.32±0.01 | – | – | – |
| [Cl-].[Na+] [NaCl] | – | – | – | NaCl concentration at maximum heating [2]: 5 mM |
| CC(O)CO (stereo not drawn) [Propylene glycol, propylene glycol] | – | decrease in blood conductivity and increase in heating rate | 5 | increase of the heating rate of PBS [4]: 490% |
| CCO [ethanol] | – | – | – | RF heating rate of neat material [5]: 0.09 ° C./s |
| OCC(O)CO [glycerol] | – | decrease in blood conductivity and increase in heating rate | 10 | – |
| OC[C@H]1O[C@H](O[C@H]2O[C@H](CO)[C@@H](O)[C@H](O)[C@H]2O)[C@H](O)[C@@H](O)[C@@H]1O [trehalose] | 0.33±0.01 | – | – | – |
